Data as given in publication PMC9555310, “Novel inhibitors and activity-based probes targeting serine proteases” (Frontiers in Chemistry, 2022).

Molecular target: T1, NE (Homo sapiens, UniProt P08246)
T1 construct: purchased Calbiochem
T1 sequence (P08246 30-267): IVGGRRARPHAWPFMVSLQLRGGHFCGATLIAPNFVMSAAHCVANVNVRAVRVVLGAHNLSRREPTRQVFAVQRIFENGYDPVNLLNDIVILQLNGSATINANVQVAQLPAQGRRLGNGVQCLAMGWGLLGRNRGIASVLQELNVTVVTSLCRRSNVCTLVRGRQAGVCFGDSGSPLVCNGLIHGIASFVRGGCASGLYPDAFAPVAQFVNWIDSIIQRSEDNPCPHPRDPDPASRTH
Test: Activity-based profiling of NE (SDS-PAGE, streptavidin-HRP western blot)
Format: binding
Details: 50 μM ABP, 30 min, 37°C; labelling extinguished by heat inactivation of NE
Description: Samples of recombinant protease (trypsin, plasmin, thrombin, chymotrypsin, or HNE, as indicated in the relevant figure legends) were treated with each of the newly synthesized compounds at a concentration of 50 μM, for 30 min, at 37°C. A control sample (no ABP) was prepared by treating the recombinant protease with solvent vehicle (DMF) only, used to prepare the stock solution of each ABP. Samples were also pre-treated (±90°C for 30 min) before being incubated with each putative ABP. With trypsin and thrombin, further samples were prepared where Z-Arg^P-(OPh)2 or NAP559, respectively, was added 30 min prior to the addition of the ABP under examination. […]
FIGURE 7 Activity Based Profiling of serine proteases by peptide N-Alkyl glycine carbamates. […] CF Sol (sample 26w) was used at a final concentration of 2.5% (v/v), and the level of NE contained therein was measured using Succinyl-Ala-Ala-Pro-Val-NHMec (50 μM), in the absence (-- o --) and presence (-- o --) of NAP800 (50 μM). […]
Following transfer, the extra protein binding sites on the membrane were blocked by addition of 3% (w/v) BSA in TBST (20 mM Tris, 137 mM NaCl, 1% (v/v) Tween 20, pH 7.6) and agitated gently at room temperature for 30 minutes. The biotin-labelled proteases were then detected by addition of Streptavidin-HRP (Vector Laboratories) in 3% (w/v) BSA in TBST at a concentration of 1:20000, for 1 hour at room temperature. […]

Question: With `CC(C)N(CC(=O)NCC(=O)NCC(=O)NCCCOCCOCCOCCCNC(=O)CCCCC1SCC2NC(=O)NC21)C(=O)ON1C(=O)CCC1=O` (stereo not drawn) [NAP800, Succinimidoyl-CO-NVal-Gly-Gly-PEG-Biotin] as the compound, how does the “labelling of NE by ABP (western blot)” value read?
Answer: labels a protein band corresponding to the expected molecular size/mass of NE
